Experiment: Comparative tests for stability of the crystalline form E and other crystalline forms (storage, total impurity and content)
Assay type: physicochemical
Settings: for Stability compared between solid forms (conclusion from Table 5): stored 1 year at 6° C. and −20° C.
Description: Comparative tests for stability of the crystalline form E and other crystalline forms. Crystalline form A and crystalline form B of ertapenem sodium were prepared according to the methods disclosed in WO03026572, crystalline form C of ertapenem sodium was prepared according to the method disclosed in WO03027067, crystalline form D of ertapenem sodium was prepared according to the method disclosed in WO2009150630, and amorphous product of ertapenem sodium was prepared according the method disclosed in CN1752090A. The above-mentioned crystalline forms A, B, C, D, the amorphous solid of ertapenem sodium, and the crystalline form E prepared according to Example 1 were stored for 1 year under refrigerating at 6° C. and freezing at −20° C., and were sampled at month 1, month 3, month 6, month 9, and month 12, respectively, and the total impurity and content of the reserved samples were tested, and the specific data are shown in Table 5: […]

Row | SMILES | Content (Freezing −20° C., month 0) [%] | Total impurity (Freezing −20° C., month 0) [%] | Content (Freezing −20° C., month 3) [%] | Total impurity (Freezing −20° C., month 3) [%] | Content (Freezing −20° C., month 6) [%] | Total impurity (Freezing −20° C., month 6) [%] | Content (Freezing −20° C., month 9) [%] | Total impurity (Freezing −20° C., month 9) [%] | Content (Freezing −20° C., month 12) [%] | Total impurity (Freezing −20° C., month 12) [%] | Content (Refrigerating 6° C., month 0) [%] | Total impurity (Refrigerating 6° C., month 0) [%] | Content (Refrigerating 6° C., month 3) [%] | Total impurity (Refrigerating 6° C., month 3) [%] | Content (Refrigerating 6° C., month 6) [%] | Total impurity (Refrigerating 6° C., month 6) [%] | Content (Refrigerating 6° C., month 9) [%] | Total impurity (Refrigerating 6° C., month 9) [%] | Content (Refrigerating 6° C., month 12) [%] | Total impurity (Refrigerating 6° C., month 12) [%] | further results
1 | C[C@@H](O)[C@H]1C(=O)N2C(C(=O)[O-])=C(S[C@@H]3CN[C@H](C(=O)Nc4cccc(C(=O)O)c4)C3)[C@H](C)[C@H]12.[Na+] (relative stereo) [Crystalline form E, (1R,5S,6S,8R,2S*,4S*)-2-[2-[(3-carboxyphenyl)carbamoyl]-pyrrolidinyl-4-thio]-6-(1-hydroxyethyl)-1-methylcarbapenem-3-carboxylic acid monosodium salt] | 99.1 | 0.8 | 99.0 | 0.8 | 99.1 | 0.8 | 99.0 | 0.8 | 98.9 | 0.8 | 99.1 | 0.8 | 98.5 | 1.3 | 98.1 | 1.6 | 97.5 | 2.1 | 96.8 | 3.2 | Stability compared between solid forms (conclusion from Table 5): comparable stability, which is more stable than the amorphous product and the crystalline form D
2 | C[C@@H](O)[C@H]1C(=O)N2C(C(=O)[O-])=C(S[C@@H]3CN[C@H](C(=O)Nc4cccc(C(=O)O)c4)C3)[C@H](C)[C@H]12.[Na+] [Amorphous, ertapenem sodium] | 98.5 | 1.2 | 98.4 | 1.2 | 98.5 | 1.3 | 98.2 | 1.5 | 98.1 | 1.7 | 98.5 | 1.2 | 97.9 | 2.1 | 94.5 | 5.3 | 92.3 | 7.1 | 90.1 | 9.3 | –
3 | C[C@@H](O)[C@H]1C(=O)N2C(C(=O)[O-])=C(S[C@@H]3CN[C@H](C(=O)Nc4cccc(C(=O)O)c4)C3)[C@H](C)[C@H]12.[Na+] [Crystalline form A, ertapenem sodium] | 99.2 | 0.7 | 99.2 | 0.7 | 99.1 | 0.7 | 99.2 | 0.7 | 99.1 | 0.7 | 99.2 | 0.7 | 98.6 | 1.2 | 98.1 | 1.5 | 97.6 | 2.0 | 96.9 | 3.0 | Stability compared between solid forms (conclusion from Table 5): comparable stability, which is more stable than the amorphous product and the crystalline form D
4 | C[C@@H](O)[C@H]1C(=O)N2C(C(=O)[O-])=C(S[C@@H]3CN[C@H](C(=O)Nc4cccc(C(=O)O)c4)C3)[C@H](C)[C@H]12.[Na+] [Crystalline form B, ertapenem sodium] | 99.1 | 0.8 | 99.1 | 0.8 | 99.0 | 0.9 | 99.0 | 0.8 | 98.9 | 0.9 | 99.1 | 0.8 | 98.3 | 1.4 | 98.0 | 1.7 | 97.5 | 2.1 | 96.6 | 3.3 | Stability compared between solid forms (conclusion from Table 5): comparable stability, which is more stable than the amorphous product and the crystalline form D
5 | C[C@@H](O)[C@H]1C(=O)N2C(C(=O)[O-])=C(S[C@@H]3CN[C@H](C(=O)Nc4cccc(C(=O)O)c4)C3)[C@H](C)[C@H]12.[Na+] [Crystalline form C, ertapenem sodium] | 99.2 | 0.8 | 99.2 | 0.8 | 99.1 | 0.8 | 99.2 | 0.8 | 99.2 | 0.8 | 99.2 | 0.8 | 98.7 | 1.1 | 98.2 | 1.4 | 97.8 | 1.9 | 96.9 | 3.0 | Stability compared between solid forms (conclusion from Table 5): comparable stability, which is more stable than the amorphous product and the crystalline form D
6 | C[C@@H](O)[C@H]1C(=O)N2C(C(=O)[O-])=C(S[C@@H]3CN[C@H](C(=O)Nc4cccc(C(=O)O)c4)C3)[C@H](C)[C@H]12.[Na+] [Crystalline form D, ertapenem sodium] | 98.8 | 1.0 | 98.7 | 1.1 | 98.7 | 1.1 | 98.6 | 1.2 | 98.5 | 1.2 | 98.8 | 1.0 | 98.0 | 1.9 | 96.8 | 3.1 | 94.7 | 4.6 | 93.2 | 6.5 | –

Source: patent US9012628B2, “Crystalline form of ertapenem sodium and preparation method therefor” (CSPC Zhongqi Pharmaceutical Technology (Shijiazhuang) Co. …, priority 2010, dated 2015)
